Measured values from patent US11364280B2, “Method for blocking stress-induced tumor progression” (Taipei Veterans General Hospital, priority 2018, dated 2022).
No end group written: not given here.

Columns and labels:
[1] = molecular target: T1, His-tagged AGO2 recombinant protein (Homo sapiens, UniProt Q9UKV8); assay: Affinity measurement by surface plasmon resonance (SPR); type: binding; settings: AGO2 immobilized on CM5 chip; peptide serial dilution 625 to 10000 nM; Langmuir 1:1 model; read-out: equilibrium dissociation constant (KD)
T1 construct: made in house; host or cells: High Five insect cells (baculovirus, Bac-To-Bac; virus made in Sf9)
T1 sequence (Q9UKV8 whole entry): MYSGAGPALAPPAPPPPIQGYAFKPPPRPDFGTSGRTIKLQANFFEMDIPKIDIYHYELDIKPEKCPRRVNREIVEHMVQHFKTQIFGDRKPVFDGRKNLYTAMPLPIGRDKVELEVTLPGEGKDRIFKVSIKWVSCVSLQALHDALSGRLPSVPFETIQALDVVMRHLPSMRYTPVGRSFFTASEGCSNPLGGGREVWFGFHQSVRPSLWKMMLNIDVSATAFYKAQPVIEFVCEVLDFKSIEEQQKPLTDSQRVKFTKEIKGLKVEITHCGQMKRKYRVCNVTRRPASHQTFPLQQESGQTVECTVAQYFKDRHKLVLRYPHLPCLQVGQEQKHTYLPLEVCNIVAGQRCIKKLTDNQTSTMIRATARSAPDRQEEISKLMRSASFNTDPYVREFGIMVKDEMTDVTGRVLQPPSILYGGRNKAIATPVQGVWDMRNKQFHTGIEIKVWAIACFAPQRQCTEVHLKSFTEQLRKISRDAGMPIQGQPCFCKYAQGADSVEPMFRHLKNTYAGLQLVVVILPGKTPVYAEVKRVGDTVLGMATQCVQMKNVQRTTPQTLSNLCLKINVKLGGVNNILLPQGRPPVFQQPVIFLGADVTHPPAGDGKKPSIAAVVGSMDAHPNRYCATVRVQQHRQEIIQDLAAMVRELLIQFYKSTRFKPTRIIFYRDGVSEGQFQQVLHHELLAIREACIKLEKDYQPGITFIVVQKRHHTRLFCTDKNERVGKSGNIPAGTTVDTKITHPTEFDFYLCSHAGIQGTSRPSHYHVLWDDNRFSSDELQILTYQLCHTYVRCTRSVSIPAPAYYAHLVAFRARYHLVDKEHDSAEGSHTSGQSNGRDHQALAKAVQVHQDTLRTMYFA
Protocol: (§1) The relative orientation of peptide-binding site and AGO2 pocket was depicted. […] The recombinant AGO2 protein was immobilized on CM5 chip and incubated with a serial dilution (from 625 to 10000 nM) of the two peptides, respectively. The association and dissociation between TAT-11, TAT-26 and immobilized AGO2 were tested by SPR (top). The association rate constant (Ka), dissociation rate constant (Kd), and equilibrium dissociation constant (KD) were calculated and presented in the chart (bottom).
A Biacore T200 (GE Healthcare) was used to study the binding affinity of the TAT-11 and TAT-26 peptides with recombinant His-tagged AGO2 protein. The recombinant His-AGO2 and TAT peptides were diluted in HBS-P buffer ([…], 150 mM NaCl and 0.005% P20, pH 7.4). To evaluate the binding affinity, recombinant His-AGO2 was immobilized on a CM5 sensor chip (GE Healthcare, BR100012) via amine coupling (˜7000 RU) for 3600 sec at rate of 5 μl/mins, followed by dissociation for 600 s. After injection of each peptide, the surface was regenerated with an injection of 10 mM NaOH. All sensorgrams were double referenced by subtracting the surface effect from the control flow […] and the buffer effect form the blank buffer. The kinetic values Ka, Kd and KD were obtained using Biacore […] Evaluation Software (GE healthcare) assuming the Langmuir 1:1 binding model.

[2] = system: MSI1/AGO2 downstream mRNA; assay: qRT-PCR of downstream mRNA targets of MSI1-AGO2, hypoxia versus normoxia; type: cell-based, human; settings: six targets
Protocol: FIG. 4A provides a schematic illustrating the full-length and C-terminal (C-term) fragment of human MSI1. The construct of MSI1 C-term was sub-cloned into p-3×Flag-Myc-CMV expression vector. […] Quantification of the fold changes of binding signals was performed by normalizing IP signals to IgG-precipitated controls. The peaks indicated MSI1 or AGO2 palindromic-binding sequence. […] Purified total RNA was subjected to RT-PCR using primers specific for NF2, TP53, CDKN1A, CCND1, CDK4, and HELLS. The mRNA levels under hypoxia were normalized with that under normoxia and presented as relative fold changes in the chart. […] The relative fold change of the number of viable cells in each day was presented in the graph. […] Xenograft tumor size was monitored from day 2 after injection of Flag-control or Flag-C-term. […] Tumor size was then monitored for 22 days. The expression of MIS1-C-term in the xenograft tumor tissue was assessed by Western blot. […] […]
Oligonucleotide specificity was computer tested (BLAST, National Center for Biotechnology Information. Bethesda. Md., USA) by homology search with the human genome and later confirmed by melting curve analysis. […] Signals were detected using 7900HT Fast Real-time PCR system (Applied Biosystems, Foster City, Calif., USA). […]

[3] = in vitro; settings: human
Protocol: (§2) After 0.5, 1, 2, 4 and 6 hours, cell lysates were collected and the fluorescent intensity was detected by ELISA reader. N=3 at each time point. […] Cells were washed and observed under microscopy at the indicated time points. […] To facilitate comparison of intake and degradation dynamics, mean fluorescence values were normalized to stating fluorescence. All data represent three independent experiments.

[4] = molecular target: T2, MSI1/AGO2 interaction (Homo sapiens, UniProt Q9UKV8); assay: Co-immunoprecipitation of endogenous MSI1 and AGO2 under hypoxia; type: cell-based; set-up: endogenous in cells; settings: 10 μM peptide, hypoxic condition
T2 sequence (Q9UKV8 whole entry): as above

[5] = molecular target: T2, MSI1/AGO2 interaction; assay: Split Gaussia luciferase reconstitution reporter assay; type: cell-based; set-up: expressed in transfected cells; lysates used for the in vitro read-out
Protocol: as §1
FIG. 14A provides schematic presentation of the constructs of full-length, C-terminus, and N-terminus of MSI1 as well as wild-type AGO2 for purifying recombinant proteins. FIG. 14B provides pull-down assay with recombinant MSI1 and AGO2 proteins showing that the C-terminus of MSI1 is essential for the direct MSI1/AGO2 interaction. […] FIG. 14D provides the schematic illustration of the split luciferase reconstitution imaging system to real-time monitor the interaction between MSI1 and AGO2.
To use Gaussia luciferase (Gluc) for detecting protein-protein interaction, we split Gaussia luciferase into NGluc (N-terminal Gluc, 106 a.a.) and CGluc (C-terminal Glue. 79 a.a.)^53,54. The two fragments were amplified by polymerase chain reaction (PCR) and subjected to construct fusion protein with MSI1 and AGO2 by the pcDNA 3.1 and pCMV backbone, respectively. Each fusion protein contains a flexible linker (GGGGS)2 between the protein and polypeptides of split luciferase^55,56. Stable cell lines were obtained by stable transfection of both fusion protein expressive plasmids in 05 MG GBM cell line with Hygromycin B (Sigma Aldrich Co., St. Louis, […]., USA) and G418 sulfate (Merck Co., Berlin, Germany). […] The bioluminescent signals were acquired by Wallac 1420 Victor^2 Microplate Reader (Perkin Elmer, Waltham. Mass., USA) equipped with auto-dispenser to avoid rapid decay of GLuc. […] The region of interests (ROI) was automatically chosen by the Living Image 4.2 software and quantified as photon flux in a certain area per second (photons/s/cm^2).

[6] = system: 05 MG cells; assay: Cellular uptake of fluorescein labeled peptides, fluorescence read by ELISA reader
Protocol: The biological activity of peptides was tested in 05 MG cell line. The cells were treated with different concentration of fluorescein labeled peptides and was measured using ELISA reader.
as §2

[7] = system: MSI1 translocation into the cytosol in 05 MG cells; assay: MSI1 subcellular translocation (immunostaining, fractionation immunoblot); type: cell-based, human; settings: cisplatin 30 μM, 24 hours
Protocol: Magnifying power: 200× (top) and 600× (bottom). Quantitation of cells expressing cytoplasmic or nuclear MSI1 is shown in the bar graph on the right. FIG. 1B 05 MG cells pre-treated with or without nuclear export inhibitor leptomycinB (LMB) (10 ng/mL, 2 h) under normoxia or hypoxia conditions for 24 hr were subjected to anti-MSI1 (green) immunostaining and DAPI (blue) nuclear counterstaining. Images were acquired from Carl Zeiss confocal microscope system. The intensity of green fluorescence in nuclear and cytosol was quantified and shown as relative percentage in the graph at the right. […] FIG. 1D provides a schematic showing the mutation sites in the NLS (orange) and NES (red) of human MSI1. All constructs were sub-cloned into p-3×Flag-Myc-CMV expression vector. […] Images were acquired from Carl Zeiss confocal microscope system, and the quantification of fluorescent intensity in the nuclear and cytosolic compartments was shown as relative percentage in the graph at the left. […] Tumor size was measure with a caliper at the indicated time points. […] The tumor size was measured with a caliper at the indicated time points. […]
The ratio of MSI1 expression in each group was presented in the graph. […] Hypoxia-induced apoptosis was withdrawn by the over-expression of wild-type MSI1 but not in mutant MSI1 groups determined by annexin V staining, MTT assay, and colony forming assay. […]

[8] = system: 05 MG/MSI1-wt xenografts; assay: Cisplatin treatment of subcutaneous xenografts overexpressing MSI1-wt; type: in vivo, mice; settings: 477.437 mm^3 without cisplatin
Protocol: Magnifying power: 200× (top) and 600× (bottom). Quantitation of cells expressing cytoplasmic or nuclear MSI1 is shown in the bar graph on the right. FIG. 1B 05 MG cells pre-treated with or without nuclear export inhibitor leptomycinB (LMB) (10 ng/mL, 2 h) under normoxia or hypoxia conditions for 24 hr were subjected to anti-MSI1 (green) immunostaining and DAPI (blue) nuclear counterstaining. Images were acquired from Carl Zeiss confocal microscope system. The intensity of green fluorescence in nuclear and cytosol was quantified and shown as relative percentage in the graph at the right. […] FIG. 1D provides a schematic showing the mutation sites in the NLS (orange) and NES (red) of human MSI1. All constructs were sub-cloned into p-3×Flag-Myc-CMV expression vector. […] Images were acquired from Carl Zeiss confocal microscope system, and the quantification of fluorescent intensity in the nuclear and cytosolic compartments was shown as relative percentage in the graph at the left. […] Tumor size was measure with a caliper at the indicated time points. […] Images were acquired from Carl Zeiss confocal microscope system. […] The tumor size was measured with a caliper at the indicated time points. […]
All procedures involving animals were performed in accordance with the institutional animal welfare guidelines of Taipei Veterans General Hospital. […] Tumor size was measured with calipers^38. […]

Row | Compound | Kd [1] | effect of MSI1/AGO2 binding on downstream mRNA [2] | half-life [3] | effect on MSI1/AGO2 interaction (co-IP immunoblot) [4] | effect on bioluminescent signal of split Gaussia luciferase ([5]; 10 μM peptide, in vitro and in vivo) | time to significant cellular uptake ([6]; 05 MG cells) | EC50 ([6]; read-out: half-uptake concentration (EC50), fluorescein labeled peptides, 05 MG cell line) | translocation of MSI1 in 05 MG cells [7] | tumor volume at day 22 [8] | bioluminescent signal of split Gaussia luciferase ([5]; in the presence of cisplatin, IVIS)
1 | YQFPEFRVERTPLPSGRKKRRQRRRPPQ [TAT-11] | 3.33 µM | reversed | ≤ 4 h | effectively abrogated the MSI1/AGO2 interaction | dramatically turned down the bioluminescent signal in vitro and in vivo | within one hour | 9.1 µM |  |  | 
2 | N.N.[Cl][Pt][Cl] [cisplatin] |  |  |  |  |  |  |  | induced | 774.365 mm^3 | increase of the bioluminescent signal
